Experimental data: patent publication US20070189970A1, “Contrast medium for thrombus formation” (Astellas Pharma Inc., priority 2004, published 2007)
Counter-ions that a name gives are not always drawn.

Columns and labels:
[1] = target: T1, active GPIIb/IIIa (Homo sapiens, UniProt P05106+P08514); experiment: Test 1: inhibitory activity of adenosine diphosphate (ADP)-induced platelet aggregation in platelet rich plasma; type: cell-based; details: for R/A ratio: IC50 (R) of Test 2 / IC50 (A) of Test 1, selective binding ability toward the active GPIIb/IIIa; for IC50: human PRP 3×10^8 platelets/ml, 37° C., read-out: A Inhibition of platelet aggregation IC50
T1 construct: Platelet rich plasma (PRP) containing 3×10^8 platelets/ml was prepared from human blood; endogenous in cells
Protocol: Test 1: Measurement of Inhibitory Activity of Adenosine Diphosphate (ADP)-induced Platelet Aggregation
Platelet rich plasma (PRP) containing 3×10^8 platelets/ml was prepared from human blood. To 225 μl of PRP, 25 μl of a solution of the test compound was added and stirred at 37° C. for 2 min. To the solution, 5 μl of ADP (final concentration: 2.5 μM) was added as an aggregation inducing agent. Aggregation was measured with aggregometer (NBS HEMA-TRACER 801). The procedure was as follows. Light transmittance of PRP was calibrated to 100%. PRP was incubated in the aggregometer at 37° C. for 2 min. ADP was added […], and the change in light transmittance was monitored by PL500 recorder (Yokogawa, Japan). Percent inhibition of aggregation by the test compound was calculated by comparison with the aggregation in the absence of the test compound. The activity of an […] (test compound) is represented as a value of IC50, i.e., a dose required for the […] inhibition of the platelet aggregation.

[2] = target: T2, resting GPIIb/IIIa (Homo sapiens, UniProt P05106+P08514); experiment: Test 2: suppression activity of fibrinogen adhesion of prostaglandin E1 (PGE1)-treated platelet; type: cell-based; details: for IC50: washed PGE1 (1 μM)-treated platelets, plates coated with human fibrinogen 1 μg/well, 37° C. 30 min, read-out: R Suppression of fibrinogen adhesion IC50
T2 construct: Platelet rich plasma (PRP) was prepared by centrifugation of whole blood; endogenous in cells; host or cells: washed platelets from venous blood, kept resting with 1 μM PGE1
Protocol: Test 2: Measurement of Suppression Activity of Fibrinogen Adhesion of Prostaglandin E1 (PGE 1)-treated Platelet
Venous blood was collected onto sodium citrate. Platelet rich plasma (PRP) was prepared by centrifugation of whole blood. Platelets were washed with modified HEPES-Tyrode's buffer (129 mM NaCl, 2.8 mM KCl, 0.8 mM KH2PO4, 8.9 mM NaHCO3, 0.8 mM MgCl2, 10 mM HEPES, 5.5 mM Glucose, 0.1% BSA,.pH 7.4) containing 1μM PGE1. After washing, platelets were suspended in modified HEPES-Tyrode's buffer containing 1.0 mM CaCl2 and 1 μM PGE1 and the number of platelet was adjusted.
Adhesion assay was carried out as follows. 96-well microtiter plates were coated with 1 μg/well of human fibrinogen. The plates were then blocked with 1% BSA. After washing the plates with the buffer, the washed platelets were added to each well in the presence of the test compound or buffer and incubated at 37° C. for 30 min. The plates were then washed three times with buffer. The number of adhered cells was determined by measuring the acid phosphatase activity of cells using a microplate reader at 410 nm. Percent inhibition of adhesion in the sample treated with the test compound was calculated by comparison with the adhesion in absence of the test compound. The activity of the test compound was represented by a value of IC50, i.e. a dose required for the […] inhibition of the platelet adhesion.

[3] = test system: monkey thrombus model; experiment: Accumulation of radioactivity at thrombus, blood and muscle in monkey thrombus model (PET, gamma counter); type: in vivo, monkey (Macaca fasciculans); details: 90 min after the administration
From the text: Kinetics of the labeled compounds in the body of monkey (Macaca fasciculans) was studied by using the contrast mediums labeled with [^11C] and [^18F] prepared in Production Examples 21 and 22, respectively.
According to the canine saphenous vein (which is formed with a confluence of dorsal digital veins of hallux and arcuate veins of foot, and ascends in front of a medial malleolus and behind of a medial condyle of femur, crosses a saphenous opening of patellar retinaculum and pour into a femoral vein over a femoral triangle) thrombosis model (Knight L. C. et al., Thromb Haemost., 1998, 80, p.845-851 and Lister-James L. et al., J. Nucl Med. 1996, 37, p.775-781), a platinum embolization coil (Boston Scientific Japan) was inserted and placed in the right femoral vein of the monkey while anesthetized and wound was sutured.
Three hours after the insertion of the coil, the contrast mediums prepared in Production Examples 21 and 22, respectively, were administered intravenously (740 MBq/2 ml-saline). Imaging was performed for 90 min with a high-resolution positron emission tomography (PET) scanner (SHR-7700, Hamamatsu Photonics K.K., Japan). After PET measurement, the coil was removed, and the right femoral vein was collected to obtain a thrombus sample. Thigh muscle was collected, and saphenous artery was punctured to collect an arterial blood sample. The thrombus, thigh muscle and arterial blood samples were weighed and their radioactivity was measured with gamma counter (1480 WIZARD, Wallac Oy, Finland).
Data was calculated as percent of injected dose ([…]).

[4] = listed as Production Example 21

T2 sequence (P08514 32-887 limits assumed): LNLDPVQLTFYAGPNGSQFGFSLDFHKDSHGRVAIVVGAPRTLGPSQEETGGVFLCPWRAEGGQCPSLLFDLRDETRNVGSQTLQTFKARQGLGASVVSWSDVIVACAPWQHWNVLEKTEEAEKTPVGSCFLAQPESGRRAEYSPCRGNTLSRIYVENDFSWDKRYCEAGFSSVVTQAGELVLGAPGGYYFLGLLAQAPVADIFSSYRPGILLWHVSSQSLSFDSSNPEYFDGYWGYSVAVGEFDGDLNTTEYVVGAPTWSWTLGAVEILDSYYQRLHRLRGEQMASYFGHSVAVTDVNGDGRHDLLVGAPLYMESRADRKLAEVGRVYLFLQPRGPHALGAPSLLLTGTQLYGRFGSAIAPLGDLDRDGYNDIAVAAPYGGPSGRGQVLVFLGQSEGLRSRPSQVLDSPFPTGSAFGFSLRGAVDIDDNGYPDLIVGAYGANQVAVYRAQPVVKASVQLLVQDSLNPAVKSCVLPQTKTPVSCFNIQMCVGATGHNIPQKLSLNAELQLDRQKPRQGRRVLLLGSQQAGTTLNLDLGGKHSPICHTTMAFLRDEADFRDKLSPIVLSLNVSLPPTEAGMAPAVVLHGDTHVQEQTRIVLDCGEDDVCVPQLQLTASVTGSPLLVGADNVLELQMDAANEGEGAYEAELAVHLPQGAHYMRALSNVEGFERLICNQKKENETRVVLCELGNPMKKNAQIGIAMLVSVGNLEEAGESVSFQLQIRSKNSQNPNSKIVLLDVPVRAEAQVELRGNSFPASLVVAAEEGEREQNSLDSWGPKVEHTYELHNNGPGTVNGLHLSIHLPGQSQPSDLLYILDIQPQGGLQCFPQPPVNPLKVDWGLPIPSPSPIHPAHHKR
T2 sequence (P08514 891-1039 partner limits assumed): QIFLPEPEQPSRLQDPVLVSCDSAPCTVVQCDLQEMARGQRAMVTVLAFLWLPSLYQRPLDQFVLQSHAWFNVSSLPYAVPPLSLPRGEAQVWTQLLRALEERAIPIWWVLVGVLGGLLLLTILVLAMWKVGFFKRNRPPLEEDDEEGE
T2 sequence (P05106 27-788): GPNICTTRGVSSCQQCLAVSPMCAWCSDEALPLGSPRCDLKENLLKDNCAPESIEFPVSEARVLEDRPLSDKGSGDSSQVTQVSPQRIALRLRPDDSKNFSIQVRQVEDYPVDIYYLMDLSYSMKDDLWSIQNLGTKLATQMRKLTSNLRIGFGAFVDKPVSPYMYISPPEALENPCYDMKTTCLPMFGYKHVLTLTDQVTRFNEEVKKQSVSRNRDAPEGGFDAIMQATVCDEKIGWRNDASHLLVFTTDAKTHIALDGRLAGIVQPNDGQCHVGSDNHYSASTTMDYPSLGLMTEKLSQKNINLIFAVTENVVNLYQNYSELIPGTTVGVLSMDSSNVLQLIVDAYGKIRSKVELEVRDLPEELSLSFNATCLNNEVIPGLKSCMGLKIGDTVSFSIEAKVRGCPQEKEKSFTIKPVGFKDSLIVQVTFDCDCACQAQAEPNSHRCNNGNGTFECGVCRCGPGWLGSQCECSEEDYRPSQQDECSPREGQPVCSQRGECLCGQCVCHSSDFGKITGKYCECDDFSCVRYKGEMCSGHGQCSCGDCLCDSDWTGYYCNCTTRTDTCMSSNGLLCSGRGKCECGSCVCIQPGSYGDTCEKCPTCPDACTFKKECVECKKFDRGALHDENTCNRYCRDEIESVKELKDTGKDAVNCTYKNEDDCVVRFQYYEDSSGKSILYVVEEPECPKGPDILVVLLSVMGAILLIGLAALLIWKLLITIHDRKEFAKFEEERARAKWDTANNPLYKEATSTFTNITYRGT
T1 sequence (P08514 32-887 limits assumed): as the sequence (P08514 32-887 limits assumed) above
T1 sequence (P08514 891-1039 partner limits assumed): as the sequence (P08514 891-1039 partner limits assumed) above
T1 sequence (P05106 27-788): as the sequence (P05106 27-788) above

Row | Compound | R/A ratio [1] | IC50 ([1]; ADP final concentration 2.5 μM) | IC50 [2] | other results
1 | CN(CC(=O)c1ccc(OCC(=O)O)c(OCC(=O)O)c1)C(=O)/C=C/C1CCNCC1 [Ex. 1, 2,2′-{[4-([methyl[(2E)-3-(4-piperidinyl)-2-propenoyl]amino}acetyl)-1,2-phenylene]bis(oxy)]diacetic acid hydrochloride] | 59 | 135 nM | 7900 nM | –
2 | CC(NCOc1ccc(C(=N)N)cc1)C(=O)N[C@@H](CC(=O)O)C(=O)N[C@@H](C(=O)N1CCS(=O)(=O)CC1)C(C)C (stereo partly drawn) [Ex. 3] | 18 | 73 nM | 1350 nM | –
3 | N=C(N)c1ccc(OCC(=O)Nc2ccc(OCC(=O)O)c(C(=O)O)c2)cc1 [Ex. 4] | 6.3 | 260 nM | 1630 nM | –
4 | CC(=O)N[C@@H](CNC(=O)[C@@H]1CCCN(C(=O)/C=C/C2CCNCC2)C1)C(=O)O [Ex. 6] | 7.8 | 56 nM | 434 nM | –
5 | COc1ccc(CCC(=O)N[C@H](CNC(=O)[C@@H]2CCCN(C(=O)CCC3CCNCC3)C2)C(=O)O)cc1 [Ex. 7] | 15 | 35 nM | 533 nM | –
6 | CCC(=O)N[C@@H](CNC(=O)[C@@H]1CCCN(C(=O)CCC2CCNCC2)C1)C(=O)O [Ex. 8] | – | 49 nM | 1520 nM | –
7 | CC(=O)OCC(=O)N[C@H](CNC(=O)[C@@H]1CCCN(C(=O)CCC2CCNCC2)C1)C(=O)O [Ex. 9] | 13 | 55 nM | 727 nM | –
8 | N[C@@H](CNC(=O)[C@@H]1CCCN(C(=O)CCC2CCNCC2)C1)C(=O)O [Ex. 10] | 9.2 | 272 nM | 2510 nM | –
9 | COc1ccc(CCC(=O)N[C@@H](CNC(=O)[C@@H]2CCCN(C(=O)CCC3CCNCC3)C2)C(=O)O)cc1 [Ex. 11] | 6.5 | 88 nM | 479 nM | –
10 | CC(=O)N[C@@H](CNC(=O)[C@H]1CCCN(C(=O)CCC2CCNCC2)C1)C(=O)O [Ex. 12] | 6.5 | 791 nM | 5160 nM | –
11 | COc1cc(C(=O)CN(C)C(=O)/C=C/C2CCNCC2)ccc1OCC(=O)O [Ex. 14] | 14 | 291 nM | 4050 nM | –
12 | CN(CC(=O)c1ccc(OCC(=O)O)c(OCCF)c1)C(=O)/C=C/C1CCNCC1 [Ex. 15] | 19 | 320 nM | 6210 nM | –
13 | CCCCCCC(=O)N[C@H](CNC(=O)[C@@H]1CCCN(C(=O)CCC2CCNCC2)C1)C(=O)O [Ex. 16] | 6.1 | 32.4 nM | 198 nM | –
14 | COC(=O)COc1ccc(C(=O)N[C@H](CNC(=O)[C@@H]2CCCN(C(=O)CCC3CCNCC3)C2)C(=O)O)cc1 [Ex. 17] | 16 | 29.9 nM | 486 nM | –
15 | CC(C)CCCOc1ccc(C(=O)N[C@@H](CNC(=O)[C@H]2CCCN(C(=O)CCC3CCNCC3)C2)C(=O)O)cc1 [Ex. 18] | 7.9 | 6.1 nM | 48 nM | –
16 | CC(C)CCC(=O)Nc1cccc(C(=O)N[C@@H](CNC(=O)[C@H]2CCCN(C(=O)CCC3CCNCC3)C2)C(=O)O)c1 [Ex. 19] | 17 | 9.1 nM | 151 nM | –
17 | CC(C)CC(=O)Nc1cccc(C(=O)N[C@@H](CNC(=O)[C@H]2CCCN(C(=O)CCC3CCNCC3)C2)C(=O)O)c1 [Ex. 20] | 8.0 | 30 nM | 239 nM | –
18 | [11CH3]N(CC(=O)c1ccc(OCC(=O)O)c(OCC(=O)O)c1)C(=O)/C=C/C1CCNCC1 [Production Ex. 21, 2,2′-[[4-({[^11C]methyl[(2E)-3-(4-piperidinyl)-2-propenoyl]amino}acetyl)-1,2-phenylene]bis(oxy)]diacetic acid trifluoroacetate] | – | – | – | Thrombus/Blood ratio [3]: 24.2 ± 17.9; Thrombus/Muscle ratio [3]: 94.8 ± 65.0; Thrombus/Blood ratio [3, 4]: approximately 24; Thrombus/Muscle ratio [3, 4]: approximately 95; Blood accumulation of radioactivity ([3]; intravenous 740 MBq, arterial blood): 0.084 ± 0.012 % ID/g/kg; Muscle accumulation of radioactivity ([3]; intravenous 740 MBq, thigh muscle): 0.021 ± 0.005 % ID/g/kg; Thrombus accumulation of radioactivity ([3]; intravenous 740 MBq, thrombus): 1.902 ± 1.132 % ID/g/kg
19 | N=C(N)c1ccc(C(=O)N[C@@H](Cc2ccc(O)cc2)C(=O)N2CCC(OCC(=O)O)CC2)cc1 [Reference Ex. 3, Lamifiban, reference compound] | 1.8 | 45 nM | 80 nM | –
20 | CC(C)[C@H](NC(=O)[C@H](CC(=O)O)NC(=O)CCCOc1ccc(C(=N)N)cc1)C(=O)O [Reference Ex. 4, FK633, reference compound] | 13 | 103 nM | 1320 nM | –
21 | Echistatin [compound 1, reference compound] | 0.38 | – | – | A Inhibition of platelet aggregation IC50 ([1]; human PRP, ADP final concentration 2.5 μM, value printed in μg/ml): 0.36 µg/mL; R Suppression of fibrinogen adhesion IC50 ([2]; PGE1-treated platelets, human fibrinogen coated plates, value printed in μg/ml): 0.14 µg/mL
